The record followed here is US20260109694A1, “HETEROCYCLIC COMPOUNDS AND USES THEREOF” (Kumquat Biosciences Inc., priority 2023, published 2026).

One experiment concerns the target T1, PTP1B (Homo sapiens, UniProt P18031).
T1 sequence (P18031 1-435): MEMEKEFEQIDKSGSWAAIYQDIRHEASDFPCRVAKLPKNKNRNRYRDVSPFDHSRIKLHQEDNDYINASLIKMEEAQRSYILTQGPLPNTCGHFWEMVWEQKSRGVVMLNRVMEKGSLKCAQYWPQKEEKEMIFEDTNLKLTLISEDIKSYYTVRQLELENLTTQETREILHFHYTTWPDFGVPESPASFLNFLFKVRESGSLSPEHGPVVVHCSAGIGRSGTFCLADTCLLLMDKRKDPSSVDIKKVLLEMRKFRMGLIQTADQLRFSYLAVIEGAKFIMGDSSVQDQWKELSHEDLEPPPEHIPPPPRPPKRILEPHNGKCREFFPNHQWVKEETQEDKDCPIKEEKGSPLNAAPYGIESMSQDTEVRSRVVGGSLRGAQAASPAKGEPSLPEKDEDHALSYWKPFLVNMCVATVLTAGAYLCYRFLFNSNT
Nature of the experiment: Phosphatase activity assay (DiFMUP substrate). The experiment is classed as biochemical. As to conditions: value bin printed in column head. How it is done: (§1) The selectivity and potency of a small molecule PTPN2 inhibitor as provided herein against one or more protein tyrosine phosphatase (PTP) enzymes, and specifically against PTPN2, is assessed in various ways. The one or more PTP enzymes comprise Mycobacterium protein tyrosine phosphatase A (mPTPA), Mycobacterium protein tyrosine phosphatase B (mPTPB), PTPN1 (i.e., PTP1B), PTPN2 (i.e., TC-PTP), PTPN22 (i.e., LYP), SHP-1, SHP-2, FAP-1, Meg2, HePTP, Laforin, VHX, VHR, LMWPTP, Cdc14A, LAR, CD45, PTPRG, a fragment thereof, a variant thereof, and a combination thereof. Selectivity and potency of a small molecule PTPN2 inhibitor is evaluated using a PTP activity inhibition assay. The assay is performed using a buffer comprising 50 mM HEPES buffer pH 7.5, 150 mM NaCl, 0.5 mM EDTA, 1 mM DTT, 0.001% Tween-20.
(§2) The assay is performed using a phosphated substrate, e.g., 10 mM 6,8-Difluoro-4-Methylumbelliferyl Phosphate (DIFMUP) that is stored at −20° C. Alternatively or in addition to, the assay is performed using other phosphated substrate (e.g., fluorescein diphosphate). Each PTP enzyme is diluted in the assay buffer
(§3) The assay can be carried out at room temperature in multiplate format, e.g., using 384 well plates. A small molecule PTPN2 inhibitor dissolved in DMSO at one of 10 concentrations from a serial dilution or DMSO alone for control is added to each well. A mixture of the assay buffer comprising PTP enzyme (e.g., 0.025 ng/ul PTPN2) is added to each well and mixed for approximately 2 minutes. The reaction is initiated by adding DiFMUP diluted in the assay buffer to a final concentration of approximately 45 µM DiFMUP in PTPN2 assay. For each PTP enzyme, DiFMUP is added at the Km (Michaelis constant) of the enzyme that had been independently determined. The phosphatase activity of the PTP enzyme is assessed by monitoring appearance of a fluorescent product (6,8-difluoro-7-hydroxyl-4-coumarin (DiFMU) from DiFMUP) continuously for about 15 to 30 minutes, using the INFINITE M1000Pro plate reader (Tecan) with excitation at 360 nm and emission at 450 nm (cutoff filter at 435 nm) for DiFMU. Each assay is performed at least in duplicate. The rate (e.g., the initial rate) of DiFMU formation is plotted against the concentration of the small molecule PTPN2 inhibitor, and the data is fitted (e.g., using a 4-parameter equation) to determine the inflection point of the fit as the IC50 of the small molecule PTPN2 inhibitor for a specific enzyme. Utilizing this assay, the ability of the compounds in Table 1 to inhibit PTPN2 and PTP1B has been assessed. Table 3 summarizes the IC50 values.

Another experiment has as its target T2, PTPN2 (Homo sapiens, UniProt P17706).
T2 sequence (P17706 1-415): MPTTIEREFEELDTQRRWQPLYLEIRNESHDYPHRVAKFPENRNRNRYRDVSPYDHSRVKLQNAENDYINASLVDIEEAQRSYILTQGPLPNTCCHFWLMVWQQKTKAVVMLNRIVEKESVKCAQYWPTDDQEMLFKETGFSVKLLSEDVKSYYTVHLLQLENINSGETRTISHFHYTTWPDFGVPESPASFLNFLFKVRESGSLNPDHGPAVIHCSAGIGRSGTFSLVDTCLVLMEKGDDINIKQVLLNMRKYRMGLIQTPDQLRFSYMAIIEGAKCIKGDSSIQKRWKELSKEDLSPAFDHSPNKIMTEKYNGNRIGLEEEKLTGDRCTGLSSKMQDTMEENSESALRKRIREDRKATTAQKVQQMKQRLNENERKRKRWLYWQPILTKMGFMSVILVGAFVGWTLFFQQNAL
Nature of the experiment: Phosphatase activity assay (DiFMUP substrate). It is filed as biochemical. As to conditions: value bin printed in column head. How it is done: as §1, §2, §3

For the compound `O=C1CN(c2c(O)ccc(CC3CCCNC3)c2F)S(=O)(=O)N1` (stereo not shown) [Compound 122, 5-(2-fluoro-6-hydroxy-3-(piperidin-3-ylmethyl)phenyl)-1,2,5-thiadiazolidin-3-one 1,1-dioxide], the IC50 at PTP1B and at PTPN2 was at most 1 µM each time.
As for `O=C1CN(c2c(O)ccc(C3=CC(CO)CC3)c2F)S(=O)(=O)N1` (stereo not shown) [Compound 131, 5-(2-fluoro-6-hydroxy-3-(3-(hydroxymethyl)cyclopent-1-en-1-yl)phenyl)-1,2,5-thiadiazolidin-3-one 1,1-dioxide], the IC50 on PTP1B and at PTPN2 was at most 1 µM in each case.
`CC(C)C(=O)O[C@H](C)OC(=O)N1CC(c2ccc(O)c(N3CC(=O)NS3(=O)=O)c2F)=C[C@@H]1CCC1CC1` [Compound 155, (S)-1-(isobutyryloxy)ethyl (S)-2-(2-cyclopropylethyl)-4-(3-(1,1-dioxido-4-oxo-1,2,5-thiadiazolidin-2-yl)-2-fluoro-4-hydroxyphenyl)-2,5-dihydro-1H-pyrrole-1-carboxylate]: the IC50 on PTP1B and on PTPN2 was at most 1 µM in each case.
Turning to `O=C1CN(c2c(O)ccc(CC3CNC3)c2F)S(=O)(=O)N1` [Compound 103, 5-(3-(azetidin-3-ylmethyl)-2-fluoro-6-hydroxyphenyl)-1,2,5-thiadiazolidin-3-one 1,1-dioxide], the IC50 on PTP1B and on PTPN2 was at most 1 µM in each case.
`O=C1CN(c2c(O)ccc(C(=O)NC3CNC3)c2F)S(=O)(=O)N1` [Compound 124, N-(azetidin-3-yl)-3-(1,1-dioxido-4-oxo-1,2,5-thiadiazolidin-2-yl)-2-fluoro-4-hydroxybenzamide]: the IC50 at PTP1B and on PTPN2 was above 1 µM in each case.
As to `N#CCCCC1C=C(c2ccc(O)c(N3CC(=O)NS3(=O)=O)c2F)CN1` (stereo not shown) [Compound 119, 4-(4-(3-(1,1-dioxido-4-oxo-1,2,5-thiadiazolidin-2-yl)-2-fluoro-4-hydroxyphenyl)-2,5-dihydro-1H-pyrrol-2-yl)butanenitrile], the IC50 on PTP1B and on PTPN2 was at most 1 µM throughout.
With `O=C1CN(c2c(O)ccc(C3=CC(CCC4CCCC4)NC3)c2F)S(=O)(=O)N1` (stereo not shown) [Compound 101, 5-(3-(5-(2-cyclopentylethyl)-2,5-dihydro-1H-pyrrol-3-yl)-2-fluoro-6-hydroxyphenyl)-1,2,5-thiadiazolidin-3-one 1,1-dioxide], the IC50 at PTP1B and on PTPN2 was at most 1 µM in each case.
In the case of `CC(C)C(=O)OCOc1ccc(C2=C[C@@H](CCC3CCC3)NC2)c(F)c1N1CC(=O)NS1(=O)=O` [Compound 160, (R)-(4-(5-(2-cyclobutylethyl)-2,5-dihydro-1H-pyrrol-3-yl)-2-(1,1-dioxido-4-oxo-1,2,5-thiadiazolidin-2-yl)-3-fluorophenoxy)methyl isobutyrate], the IC50 on PTP1B and at PTPN2 was at most 1 µM each time.
`O=C1CN(c2c(O)ccc(C3=CC(CCCC(F)F)NC3)c2F)S(=O)(=O)N1` (stereo not shown) [Compound 137, 5-(3-(5-(4,4-difluorobutyl)-2,5-dihydro-1H-pyrrol-3-yl)-2-fluoro-6-hydroxyphenyl)-1,2,5-thiadiazolidin-3-one 1,1-dioxide]: the IC50 on PTP1B and at PTPN2 was at most 1 µM throughout.
With `O=C1CN(c2c(O)ccc(C3=C[C@@H](C=CC4CC4)NC3)c2F)S(=O)(=O)N1` (single isomer, unassigned) [Compound 102, (R,E)-5-(3-(5-(2-cyclopropylvinyl)-2,5-dihydro-1H-pyrrol-3-yl)-2-fluoro-6-hydroxyphenyl)-1,2,5-thiadiazolidin-3-one 1,1-dioxide or (R,Z)-5-(3-(5-(2-cyclopropylvinyl)-2,5-dihydro-1H-pyrrol-3-yl)-2-fluoro-6-hydroxyphenyl)-1,2,5-thiadiazolidin-3-one 1,1-dioxide], the IC50 at PTP1B and on PTPN2 was at most 1 µM throughout.
`CC(C)CC[C@H]1C=C(c2ccc(O)c(N3CC(=O)NS3(=O)=O)c2F)CN1C(=O)O[C@@H](C)OC(=O)C1CCCC1` [Compound 152, (S)-1-((cyclopentanecarbonyl)oxy)ethyl (S)-4-(3-(1,1-dioxido-4-oxo-1,2,5-thiadiazolidin-2-yl)-2-fluoro-4-hydroxyphenyl)-2-isopentyl-2,5-dihydro-1H-pyrrole-1-carboxylate]: the IC50 at PTP1B was at most 1 µM; at PTPN2, above 1 µM.
For `O=C1CN(c2c(O)ccc(C3=CC(C4CCC4)NC3)c2F)S(=O)(=O)N1` (stereo not shown) [Compound 125, 5-(3-(5-cyclobutyl-2,5-dihydro-1H-pyrrol-3-yl)-2-fluoro-6-hydroxyphenyl)-1,2,5-thiadiazolidin-3-one 1,1-dioxide] the same measures were at most 1 µM and at most 1 µM.
Take `CC(C)C(=O)OC(OC(=O)N1CC(c2ccc(O)c(N3CC(=O)NS3(=O)=O)c2F)=C[C@H]1CCC1CCC1)C(C)C` (stereo partly drawn) [Compound 150, 1-(isobutyryloxy)-2-methylpropyl (2R)-2-(2-cyclobutylethyl)-4-(3-(1,1-dioxido-4-oxo-1,2,5-thiadiazolidin-2-yl)-2-fluoro-4-hydroxyphenyl)-2,5-dihydro-1H-pyrrole-1-carboxylate]: the IC50 at PTP1B and on PTPN2 was at most 1 µM throughout.
Regarding `CC(C)CC[C@H]1C=C(c2ccc(O)c(N3CC(=O)NS3(=O)=O)c2F)CN1C(=O)O[C@H](C)OC(=O)C1CCCC1` [Compound 159, (R)-1-((cyclopentanecarbonyl)oxy)ethyl (S)-4-(3-(1,1-dioxido-4-oxo-1,2,5-thiadiazolidin-2-yl)-2-fluoro-4-hydroxyphenyl)-2-isopentyl-2,5-dihydro-1H-pyrrole-1-carboxylate], the results for the IC50 on PTP1B and on PTPN2 were at most 1 µM and above 1 µM, respectively.
In the same order, the values of `CC(C)CC[C@H]1C=C(c2ccc(O)c(N3CC(=O)NS3(=O)=O)c2F)CN1` [Compound 145, (S)-5-(2-fluoro-6-hydroxy-3-(5-isopentyl-2,5-dihydro-1H-pyrrol-3-yl)phenyl)-1,2,5-thiadiazolidin-3-one 1,1-dioxide] are at most 1 µM and at most 1 µM.
In the same order, the values of `CC(C)C(=O)O[C@@H](C)OC(=O)N1CC(c2ccc(O)c(N3CC(=O)NS3(=O)=O)c2F)=C[C@@H]1CCC1CC1` [Compound 151, (R)-1-(isobutyryloxy)ethyl (S)-2-(2-cyclopropylethyl)-4-(3-(1,1-dioxido-4-oxo-1,2,5-thiadiazolidin-2-yl)-2-fluoro-4-hydroxyphenyl)-2,5-dihydro-1H-pyrrole-1-carboxylate] are at most 1 µM and at most 1 µM.
For `O=C1CN(c2c(O)cc(CC3CCNC3)cc2F)S(=O)(=O)N1` (stereo not shown) [Compound 140, 5-(2-fluoro-6-hydroxy-4-(pyrrolidin-3-ylmethyl)phenyl)-1,2,5-thiadiazolidin-3-one 1,1-dioxide] the same measures were at most 1 µM and at most 1 µM.

The IC50 is the concentration needed to halve the response being measured.
